Where “and” joins values, the source holds several entries; their conditions need not be identical. Identical values can stand only once. Like-named read-outs stand apart in the source and are kept apart here.
Experiments:
human PCAF = human PCAF (Homo sapiens, UniProt Q92831); test: PCAF activation, in vitro assay; type: biochemical
Oral pharmacokinetics = type: in vivo; conditions: for Kp: brain/plasma
[1] = test system: histone lysines H3K4, H3K9, H3K14, H4K5, H4K8, H4K12, H4K16, and H2B; test: Histone acetylation in mouse hippocampus (WB analysis); type: in vivo; conditions: for acetylation of histone lysines (H3, H4, H2B) in hippocampus: 20 mg/Kg i.p., 30 min, FIG. 22
Procedure: The compound was i.p. administered at 20 mg/Kg, mice were sacrificed 30 min later, and hippocampi were removed and quickly frozen for WB analysis.

HDAC6 = target: T1, HDAC6 (Homo sapiens, UniProt Q9UBN7); test: HDAC6 activity assay (fluorescence); conditions: Compound 1 Log [nM] 4.0; Repeat1/Repeat2
T1 sequence (Q9UBN7 1-1215): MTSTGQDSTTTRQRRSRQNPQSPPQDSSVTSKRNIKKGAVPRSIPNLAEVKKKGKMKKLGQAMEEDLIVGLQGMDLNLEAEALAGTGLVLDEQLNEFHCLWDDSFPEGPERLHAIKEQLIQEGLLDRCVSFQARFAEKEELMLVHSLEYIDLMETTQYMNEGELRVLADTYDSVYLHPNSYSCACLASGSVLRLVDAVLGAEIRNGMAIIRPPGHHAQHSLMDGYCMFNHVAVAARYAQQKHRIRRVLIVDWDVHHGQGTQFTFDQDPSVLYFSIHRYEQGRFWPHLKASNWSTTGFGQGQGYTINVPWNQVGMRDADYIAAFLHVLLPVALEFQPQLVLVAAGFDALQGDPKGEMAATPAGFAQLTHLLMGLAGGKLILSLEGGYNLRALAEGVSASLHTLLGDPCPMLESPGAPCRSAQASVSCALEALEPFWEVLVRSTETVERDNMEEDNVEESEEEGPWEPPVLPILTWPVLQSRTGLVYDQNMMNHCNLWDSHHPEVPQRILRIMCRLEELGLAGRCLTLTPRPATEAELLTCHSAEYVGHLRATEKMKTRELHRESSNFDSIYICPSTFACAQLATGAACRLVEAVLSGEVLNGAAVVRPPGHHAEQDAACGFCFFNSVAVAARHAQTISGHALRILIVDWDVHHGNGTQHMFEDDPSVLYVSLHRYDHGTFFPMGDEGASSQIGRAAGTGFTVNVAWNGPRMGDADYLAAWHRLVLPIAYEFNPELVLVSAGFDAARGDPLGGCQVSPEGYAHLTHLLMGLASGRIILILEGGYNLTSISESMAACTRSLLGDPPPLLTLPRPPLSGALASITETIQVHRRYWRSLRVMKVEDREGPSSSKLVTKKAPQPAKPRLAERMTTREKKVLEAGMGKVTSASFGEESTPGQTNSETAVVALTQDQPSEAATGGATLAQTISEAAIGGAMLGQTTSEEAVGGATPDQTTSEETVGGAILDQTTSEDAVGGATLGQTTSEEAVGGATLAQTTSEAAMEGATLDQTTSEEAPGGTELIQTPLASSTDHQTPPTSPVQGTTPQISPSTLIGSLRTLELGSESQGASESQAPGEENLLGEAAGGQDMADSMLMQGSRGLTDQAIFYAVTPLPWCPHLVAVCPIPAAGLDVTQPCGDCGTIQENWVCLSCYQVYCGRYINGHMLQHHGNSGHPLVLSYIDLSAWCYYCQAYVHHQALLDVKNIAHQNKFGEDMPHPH

HDAC7 = target: T2, HDAC7 (Homo sapiens, UniProt Q8WUI4); test: HDAC7 activity assay (fluorescence)
T2 sequence (Q8WUI4 1-952): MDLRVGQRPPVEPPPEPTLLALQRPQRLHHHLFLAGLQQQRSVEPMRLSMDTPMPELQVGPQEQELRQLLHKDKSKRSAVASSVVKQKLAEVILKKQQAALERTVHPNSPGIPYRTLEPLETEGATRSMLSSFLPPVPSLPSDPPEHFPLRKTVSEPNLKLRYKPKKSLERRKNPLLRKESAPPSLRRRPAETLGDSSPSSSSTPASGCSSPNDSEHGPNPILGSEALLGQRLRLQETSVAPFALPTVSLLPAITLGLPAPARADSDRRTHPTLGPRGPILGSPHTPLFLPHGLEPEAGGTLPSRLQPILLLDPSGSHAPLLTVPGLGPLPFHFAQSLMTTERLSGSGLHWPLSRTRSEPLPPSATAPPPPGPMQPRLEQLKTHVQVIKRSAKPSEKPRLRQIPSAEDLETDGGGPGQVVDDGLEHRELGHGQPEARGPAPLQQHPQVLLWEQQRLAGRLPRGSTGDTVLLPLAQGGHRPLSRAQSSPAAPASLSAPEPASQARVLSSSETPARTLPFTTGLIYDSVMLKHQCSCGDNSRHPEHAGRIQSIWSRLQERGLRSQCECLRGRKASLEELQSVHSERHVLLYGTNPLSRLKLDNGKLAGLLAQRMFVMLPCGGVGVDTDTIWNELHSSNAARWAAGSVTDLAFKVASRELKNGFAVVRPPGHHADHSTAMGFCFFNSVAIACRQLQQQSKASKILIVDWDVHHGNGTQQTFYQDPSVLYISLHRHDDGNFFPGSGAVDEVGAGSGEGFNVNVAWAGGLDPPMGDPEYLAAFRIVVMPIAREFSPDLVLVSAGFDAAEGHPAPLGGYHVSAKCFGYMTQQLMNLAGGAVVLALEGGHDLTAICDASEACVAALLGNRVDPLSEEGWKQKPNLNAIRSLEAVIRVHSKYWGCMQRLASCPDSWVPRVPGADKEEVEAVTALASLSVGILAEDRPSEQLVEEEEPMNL

Sequence of human PCAF (Q92831 whole entry): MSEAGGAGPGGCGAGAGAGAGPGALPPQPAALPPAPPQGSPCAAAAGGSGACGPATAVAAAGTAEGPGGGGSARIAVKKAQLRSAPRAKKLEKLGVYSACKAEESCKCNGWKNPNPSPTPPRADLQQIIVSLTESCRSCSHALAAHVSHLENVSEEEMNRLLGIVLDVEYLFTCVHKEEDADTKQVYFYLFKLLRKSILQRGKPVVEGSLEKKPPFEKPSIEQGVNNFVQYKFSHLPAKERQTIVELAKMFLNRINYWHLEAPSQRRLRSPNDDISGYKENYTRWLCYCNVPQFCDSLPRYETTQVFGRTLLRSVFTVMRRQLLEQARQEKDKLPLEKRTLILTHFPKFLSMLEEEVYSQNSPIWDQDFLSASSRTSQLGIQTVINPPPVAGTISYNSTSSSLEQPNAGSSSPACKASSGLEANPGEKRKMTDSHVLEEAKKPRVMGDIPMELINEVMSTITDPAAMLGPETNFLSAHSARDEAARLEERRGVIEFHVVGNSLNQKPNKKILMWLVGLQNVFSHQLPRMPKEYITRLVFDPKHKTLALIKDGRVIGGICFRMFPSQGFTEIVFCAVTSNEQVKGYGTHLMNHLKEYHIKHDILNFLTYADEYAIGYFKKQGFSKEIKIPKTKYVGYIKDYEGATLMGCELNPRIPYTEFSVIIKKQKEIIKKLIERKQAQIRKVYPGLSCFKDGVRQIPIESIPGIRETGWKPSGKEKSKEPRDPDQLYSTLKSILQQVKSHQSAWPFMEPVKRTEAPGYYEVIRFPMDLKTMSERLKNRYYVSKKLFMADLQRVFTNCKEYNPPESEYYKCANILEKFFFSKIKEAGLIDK

CCOc1cccc(OCCN(C)C)c1C(=O)Nc1ccc(Cl)c(C(F)(F)F)c1 [Compound 1]
EC50 (human PCAF): 29 µM and 18.1 µM | Kp (Oral pharmacokinetics; po, read-out: AUC0-t ratio brain/plasma): 6.6 | Kp (Oral pharmacokinetics; po, read-out: AUC0-∞ ratio brain/plasma): 6.5 | Kp (Oral pharmacokinetics; po, read-out: Cmax ratio brain/plasma): 5.7 | amount in the brain compared with plasma (Oral pharmacokinetics; dosed orally, FIG. 17): higher than that in the plasma | AUC0-t (Oral pharmacokinetics; oral, brain): 2149 ng·h/g | AUC0-∞ (Oral pharmacokinetics; oral, brain): 2159 ng·h/g | Cmax (Oral pharmacokinetics; oral, brain): 1010 ng/g | MRT (Oral pharmacokinetics; oral, brain): 1.68 h | Tmax (Oral pharmacokinetics; oral, brain): 60 min | half-life (Oral pharmacokinetics; oral, brain, read-out: t1/2 (converted)): 59.4 min | AUC(0-inf) (Oral pharmacokinetics; oral, plasma): 330 ng·h/mL | Cmax (Oral pharmacokinetics; oral, plasma): 177 ng/mL | MRT (Oral pharmacokinetics; oral, plasma): 1.5 h | Tmax (Oral pharmacokinetics; oral, plasma): 30 min | AUC0-t (Oral pharmacokinetics; oral, plasma, read-out: AUC0-t): 328 ng·h/mL | half-life (Oral pharmacokinetics; oral, plasma, read-out: t1/2 (converted)): 63.6 min | half-life (Oral pharmacokinetics; po, brain and plasma, read-out: elimination half-lives in the brain and plasma): ~60 min | acetylation of histone lysines (H3, H4, H2B) in hippocampus [1]: increased acetylation of histone lysines | acetylation of histone lysines (H3, H4, H2B) in hippocampus ([1]; listed as YF2): increased specific acetylation of H3, H4, and H2B | crossing of the BBB ([1]; i.p., western blot, FIG. 21): crosses the BBB | histone 3 acetylation levels of the hippocampus ([1]; i.p., western blot, FIG. 21): increases histone 3 acetylation levels | % Activity (HDAC6) (HDAC6): 94.62% | IC50 (HDAC7): > 200 µM

From patent US9809532B2, “Uses of histone acetyltransferase activators” (THE TRUSTEES OF COLUMBIA UNIVERSITY IN THE CITY OF NEW YORK, priority 2011, dated 2017)
